Biological target: MAGL (Homo sapiens (Human), UniProt Q99685)
Assay: In vitro competitive activity-based protein profiling (human prefrontal cortex membrane fractions, FP-Rh probe), MAGL band
Settings: read-out: MAGL IC50 (μM) (human); human prefrontal cortex membrane fractions

MAGL, sequence (Q99685 whole entry): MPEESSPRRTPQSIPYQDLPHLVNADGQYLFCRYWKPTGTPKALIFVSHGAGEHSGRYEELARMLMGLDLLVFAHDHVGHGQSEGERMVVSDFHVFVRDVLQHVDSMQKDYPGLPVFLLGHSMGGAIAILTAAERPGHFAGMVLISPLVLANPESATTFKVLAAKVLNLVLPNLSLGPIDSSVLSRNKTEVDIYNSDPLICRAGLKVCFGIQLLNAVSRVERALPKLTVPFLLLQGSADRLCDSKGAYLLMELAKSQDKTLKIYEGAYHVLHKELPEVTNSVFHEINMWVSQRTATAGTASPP

Row | Structure (SMILES) | IC50
1 | O=C(O)c1ccn(C(=O)N2C[C@H]3C[C@H](OCc4ccc(Cl)c(-c5nccs5)c4)C[C@H]3C2)n1 [Example 345, 1-(trans-5-((4-chloro-3-(thiazol-2-yl)benzyl)oxy)-octahydrocyclopenta-[c]pyrrole-2-carbonyl)-1H-pyrazole-3-carboxylic acid] | < 0.1 µM
2 | CC(C)c1cccc(O[C@H]2C[C@@H]3CN(C(=O)n4ccc(C(=O)O)n4)C[C@@H]3C2)c1 [Example 220, 1-(trans-5-(3-isopropylphenoxy)-octahydrocyclopenta-[c]pyrrole-2-carbonyl)-1H-pyrazole-3-carboxylic acid] | < 0.1 µM
3 | O=C(O)c1nn(C(=O)N2CCC3(CCN(Cc4cc(Cl)cc(C(F)(F)F)c4)C3)CC2)cc1Cl [Example 388, 4-chloro-1-(2-(3-chloro-5-(trifluoromethyl)-benzyl)-2,8-diazaspiro-[4.5]decane-8-carbonyl)-1H-pyrazole-3-carboxylic acid] | < 0.1 µM
4 | O=C(O)c1ccn(C(=O)N2CCC(OCc3cc(N4CCCC4)cc(C(F)(F)F)c3)CC2)n1 [Example 331, 1-(4-((3-(pyrrolidin-1-yl)-5-(trifluoromethyl)-benzyl)-oxy)piperidine-1-carbonyl)-1H-pyrazole-3-carboxylic acid] | < 0.1 µM
5 | NC(=O)c1ccn(C(=O)N2CCC3(CCCN3Cc3cc4ccc(C(F)(F)F)cc4s3)CC2)n1 [Example 22, 1-(1-((6-(Trifluoromethyl)benzo[b]thiophen-2-yl)methyl)-1,8-diazaspiro[4.5]decane-8-carbonyl)-1H-pyrazole-3-carboxamide] | < 0.1 µM
6 | CN(Cc1ccc(C(F)(F)F)cc1N1CCCCC1)C1(C)CCN(C(=O)n2ccc(C(=O)O)n2)CC1 [Example 397, 1-(4-methyl-4-(methyl(2-(piperidin-1-yl)-4-(trifluoromethyl)-benzyl)amino)-piperidine-1-carbonyl)-1H-pyrazole-3-carboxylic acid] | < 0.1 µM
7 | CNC(=O)c1ccn(C(=O)N2CC3CN(Cc4cc(Cl)cc(C(F)(F)F)c4)CC3C2)n1 (stereo not drawn) [Example 437, 1-(5-(3-chloro-5-(trifluoromethyl)-benzyl)-octahydropyrrolo-[3,4-c]pyrrole-2-carbonyl)-N-methyl-1H-pyrazole-3-carboxamide] | < 0.1 µM
8 | O=C(O)c1ccn(C(=O)N2CCC3(CCN(Cc4cc(Cl)ccc4C(F)(F)F)CC3)CC2)n1 [Example 217, 1-(9-(5-chloro-2-(trifluoromethyl)-benzyl)-3,9-diazaspiro[5.5]-undecane-3-carbonyl)-1H-pyrazole-3-carboxylic acid] | < 0.1 µM
9 | O=C(O)c1ccn(C(=O)N2CCN(Cc3cccc(Oc4cccc(Cl)c4)c3)CC2)n1 [Example 84, 1-(4-(3-(3-chlorophenoxy)-benzyl)-piperazine-1-carbonyl)-1H-pyrazole-3-carboxylic acid] | < 0.1 µM
10 | O=C(O)c1ccn(C(=O)N2CCC3(CCN(Cc4cccc(Cl)c4Cl)C3)CC2)n1 [Example 286, 1-(2-(2,3-dichlorobenzyl)-2,8-diazaspiro[4.5]-decane-8-carbonyl)-1H-pyrazole-3-carboxylic acid] | < 0.1 µM
11 | O=C(O)c1ccn(C(=O)N2C[C@H]3C[C@H](Oc4cccc(-c5nccs5)c4)C[C@H]3C2)n1 [Example 261, 1-(trans-5-(3-(thiazol-2-yl)phenoxy)-octahydrocyclopenta-[c]pyrrole-2-carbonyl)-1H-pyrazole-3-carboxylic acid] | < 0.1 µM
12 | Cc1c(CO[C@H]2C[C@@H]3CN(C(=O)n4cc(Cl)c(C(=O)O)n4)C[C@@H]3C2)cccc1C(F)(F)F [Example 341, 4-chloro-1-(trans-5-((2-methyl-3-(trifluoromethyl)-benzyl)oxy)-octahydrocyclopenta-[c]pyrrole-2-carbonyl)-1H-pyrazole-3-carboxylic acid] | < 0.1 µM
13 | O=C(O)c1ccn(C(=O)N2CCN(Cc3ccc(Cl)c(-c4nccs4)c3)CC2)n1 [Example 274, 1-(4-(4-chloro-3-(thiazol-2-yl)benzyl)-piperazine-1-carbonyl)-1H-pyrazole-3-carboxylic acid] | < 0.1 µM
14 | O=C(O)c1ccn(C(=O)N2CCN(Cc3ccc(C(F)(F)F)cc3N3CCOCC3)CC2)n1 [Example 3, 1-(4-(2-Morpholino-4-(trifluoromethyl)benzyl)piperazine-1-carbonyl)-1H-pyrazole-3-carboxylic Acid] | < 0.1 µM
15 | C[C@@H]1C[C@@H](N(C)Cc2cccc(C(F)(F)F)c2)CCN1C(=O)n1ccc(C(N)=O)n1 [Example 260, 1-((2R,4S)-2-methyl-4-(methyl(3-(trifluoromethyl)-benzyl)amino)-piperidine-1-carbonyl)-1H-pyrazole-3-carboxamide] | < 0.1 µM
16 | O=C(O)c1ccn(C(=O)N2CCN(Cc3cccc(Oc4ccc(Cl)cc4)c3)CC2)n1 [Example 98, 1-(4-(3-(4-chlorophenoxy)-benzyl)-piperazine-1-carbonyl)-1H-pyrazole-3-carboxylic acid] | < 0.1 µM
17 | O=C(O)c1ccn(C(=O)N2CCC3(CCCN3Cc3cc(-n4cccn4)cc(C(F)(F)F)c3)CC2)n1 [Example 32, 1-(1-(3-(1H-pyrazol-1-yl)-5-(Trifluoromethyl)benzyl)-1,8-diazaspiro[4.5]decane-8-carbonyl)-1H-pyrazole-3-carboxylic Acid] | < 0.1 µM

Row | Structure (SMILES) | IC50
18 | O=C(O)c1nn(C(=O)N2CC3CN(Cc4cc(Cl)ccc4Cl)CC3C2)cc1Cl (stereo not drawn) [Example 136, 4-chloro-1-(5-(2,5-dichlorobenzyl)-octahydropyrrolo-[3,4-c]pyrrole-2-carbonyl)-1H-pyrazole-3-carboxylic acid] | < 0.1 µM
19 | C[C@H]1C[C@H](N(C)Cc2cccc(C(F)(F)F)c2)CCN1C(=O)n1ccc(C(N)=O)n1 [Example 259, 1-((2S,4R)-2-methyl-4-(methyl(3-(trifluoromethyl)-benzyl)amino)-piperidine-1-carbonyl)-1H-pyrazole-3-carboxamide] | < 0.1 µM
20 | Cc1c(CO[C@H]2C[C@@H]3CN(C(=O)n4ccc(C(=O)O)n4)C[C@@H]3C2)cccc1C(F)(F)F [Example 159, 1-(trans-5-((2-methyl-3-(trifluoromethyl)-benzyl)oxy)-octahydrocyclo-penta-nl [c]pyrrole-2-carbonyl)-1H-pyrazole-3-carboxylic acid] | < 0.1 µM
21 | O=C(O)c1ccn(C(=O)N2CCN(Cc3cccc(Oc4ccc(F)cn4)c3)CC2)n1 [Example 266, 1-(4-(3-((5-fluoropyridin-2-yl)oxy)benzyl)-piperazine-1-carbonyl)-1H-pyrazole-3-carboxylic acid] | < 0.1 µM
22 | O=C(O)c1ccn(C(=O)N2CCC(Oc3ccc(C(F)(F)F)cc3N3CCCC3)CC2)n1 [Example 307, 1-(4-(2-(pyrrolidin-1-yl)-4-(trifluoromethyl)-phenoxy)-piperidine-1-carbonyl)-1H-pyrazole-3-carboxylic acid] | < 0.1 µM
23 | O=C(O)c1ccn(C(=O)N2CCC(OCc3ccc(Cl)c(C(F)(F)F)c3)CC2)n1 [Example 276, 1-(4-((4-chloro-3-(trifluoromethyl)-benzyl)oxy)-piperidine-1-carbonyl)-1H-pyrazole-3-carboxylic acid] | < 0.1 µM
24 | NC(=O)c1ccn(C(=O)N2CC3CN(Cc4ccc(C5(C(=O)O)CCOCC5)cc4C(F)(F)F)CC3C2)n1 (stereo not drawn) [Example 35, 4-(4-((5-(3-carbamoyl-1H-pyrazole-1-carbonyl)hexahydropyrrolo[3,4-c]pyrrol-2(1H)-yl)methyl)-3-(trifluoromethyl)phenyl)tetrahydro-2H-pyran-4-carboxylic acid] | < 0.1 µM
25 | O=C(O)c1ccn(C(=O)N2CCC3(CC2)CN(Cc2cc(Cl)ccc2C(F)(F)F)C3)n1 [Example 313, 1-(2-(5-chloro-2-(trifluoromethyl)-benzyl)-2,7-diazaspiro[3.5]-nonane-7-carbonyl)-1H-pyrazole-3-carboxylic acid] | < 0.1 µM
26 | O=C(O)c1ccn(C(=O)N2C[C@H]3C[C@@H](Oc4cccc(-c5ccccc5)c4)C[C@H]3C2)n1 [Example 164, 1-(cis-5-([1,1′-biphenyl]-3-yloxy)-octahydrocyclopenta-[c]pyrrole-2-carbonyl)-1H-pyrazole-3-carboxylic acid] | < 0.1 µM
27 | Cc1cc(CN2CCCC23CCN(C(=O)n2ccc(C(=O)O)n2)CC3)cc(C(F)(F)F)c1 [Example 303, 1-(1-(3-methyl-5-(trifluoromethyl)-benzyl)-1,8-diazaspiro[4.5]-decane-8-carbonyl)-1H-pyrazole-3-carboxylic acid] | < 0.1 µM
28 | C[C@@H]1CN(Cc2ccc(-c3ccccc3)cc2C(F)(F)F)CCN1C(=O)n1ccc(C(=O)O)n1 [Example 351, (R)-1-(2-methyl-4-((3-(trifluoromethyl)-[1,1′-biphenyl]-4-yl)methyl)-piperazine-1-carbonyl)-1H-pyrazole-3-carboxylic acid] | < 0.1 µM
29 | C[C@@H]1CN(Cc2ccc(-c3ccccc3)cc2F)CCN1C(=O)n1ccc(C(=O)O)n1 [Example 253, (R)-1-(4-((3-fluoro-[1,1′-biphenyl]-4-yl)methyl)-2-methylpiperazine-1-carbonyl)-1H-pyrazole-3-carboxylic acid] | < 0.1 µM
30 | O=C(O)c1ccn(C(=O)N2CCC3(CCN(Cc4ccc(C(F)(F)F)cc4Cl)C3)CC2)n1 [Example 77, 1-(2-(2-chloro-4-(trifluoromethyl)-benzyl)-2,8-diazaspiro[4.5]-decane-8-carbonyl)-1H-pyrazole-3-carboxylic acid] | < 0.1 µM
31 | O=C(O)c1ccn(C(=O)N2CCC(Oc3cc(N4CCCC4)cc(C(F)(F)F)c3)CC2)n1 [Example 308, 1-(4-(3-(pyrrolidin-1-yl)-5-(trifluoromethyl)-phenoxy)-piperidine-1-carbonyl)-1H-pyrazole-3-carboxylic acid] | < 0.1 µM
32 | Cc1c(CO[C@@H]2C[C@@H]3CN(C(=O)n4ccc(C(=O)O)n4)C[C@@H]3C2)cccc1C(F)(F)F [Example 289, 1-(cis-5-((2-methyl-3-(trifluoromethyl)-benzyl)oxy)-octahydrocyclopenta-[c]pyrrole-2-carbonyl)-1H-pyrazole-3-carboxylic acid] | < 0.1 µM
33 | NC(=O)c1ccn(C(=O)N2CCN(Cc3cnccc3C(F)(F)F)CC2)n1 [Example 175, 1-(4-((4-(trifluoromethyl)-pyridin-3-yl)methyl)-piperazine-1-carbonyl)-1H-pyrazole-3-carboxamide] | < 0.1 µM

From patent US10927105B1 (Lundbeck La Jolla Research Center, Inc., priority 2017, dated 2021)
